Reference: patent publication US6900024B2, “T cell receptor ligands and methods of using same” (The United States of America as represented by the …, priority 1993, dated 2005)
Ends that are not written are not given here. * marks the point of attachment. long‑chain biotin = O=C(CCCC[C@@H]1SC[C@@H]2NC(=O)N[C@@H]21)NCCCCCC(=O)*

What was measured:
[1] = tested on: MHC molecules with kss Eβ chains; experiment: Peptide binding to cell-associated class II MHC molecules using biotinylated peptides; design: species or system mouse
Procedure: A modified version of the assay described in Busch et al., Int. Immunol., 2, 443-51 (1990), was used to measure peptide binding to cell-associated class II MHC molecules. After extensive washing in phosphate buffered saline (PBS)-1% bovine serum albumin (BSA), 2×10^5 DAP.3 cells or DAP.3 transfectants expressing various EαEβ molecules were incubated at 37° C. in 200 μl of PBS-2% FCS containing the indicated concentration of biotinylated peptide. In the competition experiments competitors were added at the same time as labeled peptide and at the indicated concentrations. After 4 hours, the cells were washed and stained with a sandwich of FITC-avidin (Vector), biotinylated-anti-avidin (Vector), and FITC-avidin (Vector). After washing, the cells were analyzed on a FAScan flow cytometer for fluorescence. Only viable cells were considered in the analysis, as determined by PI staining. The data are expressed as net mean fluorescence intensity (MFI), calculated by subtracting from the actual MFI the MFI obtained by staining in the absence of biotinylated-peptide. Percent inhibition in the competition experiments was calculated as: % of I=(net MFI without competitor−net MFI with competitor)/(net MFI without […]).

[2] = tested on: 3C6 Th1 cells; experiment: IL-2 production by 3C6 Th1 cells co-cultured with transfected L cells (CTLL indicator cells); type: cell-based, mouse; settings: L cells expressing MHC molecules with kss Eβ chains
Procedure: Production of IL-2 and IL-3 in response to L cell transfectants in the presence or absence of added peptide was measured as described in Ronchese et al., Nature, 329, 254-6 (1987b). In brief, 2−5×10^4 T cells were incubated with 2−5×10^4 transfected L cells in the wells of 96-well flat bottom culture plates in 200 μl of complete medium with or without various concentrations of peptide antigen. Supernatants were collected after 24 hours and assayed for IL-2 content using CTLL indicator cells, or for IL-3 content using FDC.1 cells. IL-2 and IL-3 units were calculated as the inverse of the dilution giving 50% of the maximum ^3H-thymidine incorporation by CTLL (IL-2) or FDC.1 (IL-3) cells observed with reference IL-2 and IL-3 preparations. Proliferative responses were measured by assessing ^3H-thymidine incorporation between 48-66 hrs of culture. For experiments in which the data are expressed as “% max” or “% alloresponse”, the actual absolute 100% responses were: IL-2 alloresponse, 10-40 units/ml; IL-3 alloresponse, 100-500 units/ml; IL-2 response to EαEβ^k plus PCC peptide, 150-300 units/ml; IL-3 response to EαEβ^k plus PCC peptide, 1000-10,000 units/ml; IL-2 response to fixed cells bearing EαEβ^k plus PCC peptide, 30-50 units/ml; IL-3 response to fixed cells bearing EαEβ^k plus PCC peptide, 50-200 units/ml. […]

Substance | binding to MHC molecule with kss chains, competition for binding of biotinylated-DASP ([1]; biotinylated-DASP 25 μM, FIG. 2A) | direct binding of biotinylated peptide to MHC molecules with kss chains ([1]; FIG. 3A) | effect of peptide on alloreactive stimulation of IL-2 production [2]
HEL 46-61: hen egg lysozyme (HEL) peptide 46-61 | able to bind the MHC molecule with kss chains to a similar extent as the inhibitory PCC 81-104 peptide | – | –
HEL 81-96: hen egg lysozyme (HEL) peptide 81-96, with NH2-terminal long-chain biotin in FIG. 3 ({long‑chain biotin}-SALLSSDITASVNCAK; UniProt P00698 99-114, looked up, fragment) | – | bound well to the MHC molecules with kss chains | lacked ability to inhibit alloreactive stimulation of IL-2 production
